These results are taken from ChEMBL document CHEMBL3286114, “Dual RXR Agonists and RAR Antagonists Based on the Stilbene Retinoid Scaffold” (ACS Med Chem Lett, 2014).

What all share (format): cell-based
The target of experiment [1] is T1, Retinoic acid receptor alpha (Mus musculus) (UniProt P11416).
T1 sequence (whole entry): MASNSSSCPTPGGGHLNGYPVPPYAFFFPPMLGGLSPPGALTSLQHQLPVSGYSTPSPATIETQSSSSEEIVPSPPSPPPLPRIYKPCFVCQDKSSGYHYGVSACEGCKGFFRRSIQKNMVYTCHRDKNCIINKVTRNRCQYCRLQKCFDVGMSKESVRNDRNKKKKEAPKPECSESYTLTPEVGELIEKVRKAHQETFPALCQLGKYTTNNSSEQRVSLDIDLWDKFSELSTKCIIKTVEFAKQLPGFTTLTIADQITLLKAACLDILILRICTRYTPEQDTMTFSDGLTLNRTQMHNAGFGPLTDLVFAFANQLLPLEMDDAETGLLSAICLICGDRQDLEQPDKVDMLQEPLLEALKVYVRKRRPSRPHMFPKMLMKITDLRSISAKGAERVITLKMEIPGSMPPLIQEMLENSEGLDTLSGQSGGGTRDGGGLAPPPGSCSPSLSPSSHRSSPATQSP
In words: Agonist activity at Gal4-fused mouse RAR-alpha transfected in human HeLa cells after 12 hrs by luciferase reporter gene assay.

The target in experiment [2] is T2, Retinoic acid receptor beta (Mus musculus) (UniProt P22605).
T2 sequence (whole entry): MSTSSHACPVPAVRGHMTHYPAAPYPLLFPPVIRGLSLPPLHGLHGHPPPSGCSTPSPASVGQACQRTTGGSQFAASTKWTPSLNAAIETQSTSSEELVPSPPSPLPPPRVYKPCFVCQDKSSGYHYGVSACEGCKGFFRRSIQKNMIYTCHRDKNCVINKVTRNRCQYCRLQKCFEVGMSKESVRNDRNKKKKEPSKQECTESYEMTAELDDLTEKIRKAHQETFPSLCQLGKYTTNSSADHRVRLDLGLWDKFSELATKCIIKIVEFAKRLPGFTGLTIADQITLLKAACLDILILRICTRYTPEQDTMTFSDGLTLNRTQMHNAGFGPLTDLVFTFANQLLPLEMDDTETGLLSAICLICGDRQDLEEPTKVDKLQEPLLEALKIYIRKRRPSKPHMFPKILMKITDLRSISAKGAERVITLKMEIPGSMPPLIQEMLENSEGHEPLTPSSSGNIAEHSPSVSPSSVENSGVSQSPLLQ
In words: Agonist activity at Gal4-fused mouse RAR-beta transfected in human HeLa cells at 10 uM after 12 hrs by luciferase reporter gene assay. Background: Reporter assays use an easily measured gene product as a stand-in for the process of interest.

Experiment [3] addresses T3, Retinoic acid receptor gamma (Mus musculus) (UniProt P18911).
T3 sequence (whole entry): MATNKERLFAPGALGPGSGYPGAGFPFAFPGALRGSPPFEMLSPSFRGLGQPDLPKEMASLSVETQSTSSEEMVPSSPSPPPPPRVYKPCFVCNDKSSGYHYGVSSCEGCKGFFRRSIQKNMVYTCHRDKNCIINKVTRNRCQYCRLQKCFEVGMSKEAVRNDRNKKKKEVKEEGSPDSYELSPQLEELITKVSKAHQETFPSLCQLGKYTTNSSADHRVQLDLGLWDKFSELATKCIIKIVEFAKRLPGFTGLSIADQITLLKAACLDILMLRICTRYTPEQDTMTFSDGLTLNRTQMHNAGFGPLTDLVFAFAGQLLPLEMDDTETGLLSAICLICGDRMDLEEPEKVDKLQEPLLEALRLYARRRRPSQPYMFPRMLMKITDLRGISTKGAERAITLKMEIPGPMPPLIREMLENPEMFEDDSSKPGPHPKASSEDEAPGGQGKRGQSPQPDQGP
Description: Agonist activity at Gal4-fused mouse RAR-gamma transfected in human HeLa cells at 10 uM after 12 hrs by luciferase reporter gene assay.

The target in experiment [4] is T2, Retinoic acid receptor beta (Mus musculus). In words: Agonist activity at Gal4-fused mouse RAR-beta transfected in human HeLa cells at >1 uM after 12 hrs by luciferase reporter gene assay.
Experiment [5] concerns the target T3, Retinoic acid receptor gamma (Mus musculus). Description: Antagonist activity at Gal4-fused mouse RAR-gamma transfected in human HeLa cells after 12 hrs by luciferase reporter gene assay.
Experiment [6] has the same target. In words: Agonist activity at Gal4-fused mouse RAR-gamma transfected in human HeLa cells at 1 uM after 12 hrs by luciferase reporter gene assay.
Experiment [7] deals with T4, Retinoic acid receptor RXR-beta (Homo sapiens) (UniProt P28702).
T4 sequence (whole entry): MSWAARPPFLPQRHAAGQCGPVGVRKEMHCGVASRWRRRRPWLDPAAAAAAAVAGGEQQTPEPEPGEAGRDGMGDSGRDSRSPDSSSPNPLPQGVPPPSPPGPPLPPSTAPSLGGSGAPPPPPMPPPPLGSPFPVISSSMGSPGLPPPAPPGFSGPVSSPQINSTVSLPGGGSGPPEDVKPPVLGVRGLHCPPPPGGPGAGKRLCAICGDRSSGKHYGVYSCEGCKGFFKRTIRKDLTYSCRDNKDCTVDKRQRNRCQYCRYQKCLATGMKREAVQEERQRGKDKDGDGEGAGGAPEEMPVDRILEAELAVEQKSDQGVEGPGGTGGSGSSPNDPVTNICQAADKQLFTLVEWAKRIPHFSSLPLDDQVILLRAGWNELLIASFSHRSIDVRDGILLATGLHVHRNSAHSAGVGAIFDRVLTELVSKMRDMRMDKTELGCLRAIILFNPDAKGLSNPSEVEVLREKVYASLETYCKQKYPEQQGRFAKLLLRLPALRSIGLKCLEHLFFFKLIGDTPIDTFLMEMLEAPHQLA
Description: Agonist activity at Gal4-fused human RXR-beta transfected in human HeLa cells at 51 nM after 12 hrs by luciferase reporter gene assay relative to control.

For experiment [8], the target named is T4, Retinoic acid receptor RXR-beta (Homo sapiens). Description: Agonist activity at Gal4-fused human RXR-beta transfected in human HeLa cells at 875 nM after 12 hrs by luciferase reporter gene assay relative to control.
In experiment [9] the target is T1, Retinoic acid receptor alpha (Mus musculus). Description: Agonist activity at Gal4-fused mouse RAR-alpha transfected in human HeLa cells at 1 uM after 12 hrs by luciferase reporter gene assay.
Experiment [10] addresses T4, Retinoic acid receptor RXR-beta (Homo sapiens). In words: Agonist activity at Gal4-fused human RXR-beta transfected in human HeLa cells at 125 nM after 12 hrs by luciferase reporter gene assay relative to control.
Experiment [11] deals with T2, Retinoic acid receptor beta (Mus musculus). Description: Agonist activity at Gal4-fused mouse RAR-beta transfected in human HeLa cells at 1 uM after 12 hrs by luciferase reporter gene assay.
Experiment [12] has the same target. In words: Antagonist activity at Gal4-fused mouse RAR-beta transfected in human HeLa cells after 12 hrs by luciferase reporter gene assay.
Experiment [13] deals with T4, Retinoic acid receptor RXR-beta (Homo sapiens). Description: Agonist activity at Gal4-fused human RXR-beta transfected in human HeLa cells after 12 hrs by luciferase reporter gene assay.
Experiment [14] concerns the target T1, Retinoic acid receptor alpha (Mus musculus). In words: Antagonist activity at Gal4-fused mouse RAR-alpha transfected in human HeLa cells after 12 hrs by luciferase reporter gene assay.
Experiment [15] concerns the target T4, Retinoic acid receptor RXR-beta (Homo sapiens). In words: Agonist activity at Gal4-fused human RXR-beta transfected in human HeLa cells at 541 nM after 12 hrs by luciferase reporter gene assay relative to control.

Each structure is given as a SMILES string. Activity calls are given as the source filed them. No cut-off for these calls is given here.

Consider `O=C(O)c1ccc(NC(=O)c2ccc3c(-c4ccccc4)ccc(-c4ccccc4)c3c2)c(Cl)c1`, for which the result in [1] was inactive. Moreover, the result in experiment [2] and in [3] was Active.
On to `O=C(O)c1ccc(NC(=O)c2ccc3c(-c4ccccc4)ccc(-c4ccccc4)c3c2)cc1`, for which the result in experiment [4], in experiment [2] and in experiment [3] was Active. Further, in [1], the result was inactive.
For `O=C(O)c1ccc(/C=C/c2ccc3c(-c4ccccc4)ccc(-c4ccccc4)c3c2)c(F)c1`, the result in [5], in experiment [12], in experiment [13] and in [14] was Active. In addition, the outcome in experiment [6], in [9] and in experiment [11] was inactive. Also, the fold change (FC) in experiment [7], in experiment [8], in [10] and in experiment [15] was 15 throughout.
On to `O=C(O)c1ccc(NC(=O)c2ccc3c(-c4ccccc4)ccc(-c4ccccc4)c3c2)c(F)c1`, for which, in experiment [1], the result was inactive. Further, the outcome in [2] and in [3] was Active.
Take `O=C(O)c1ccc(/C=C/c2ccc3c(-c4ccccc4)ccc(-c4ccccc4)c3c2)c(Br)c1`: the result in experiment [5], in experiment [12], in experiment [13] and in experiment [14] was Active. For the same compound, the result in [6], in experiment [9] and in experiment [11] was inactive. Further, the fold change (FC) in experiment [7], in experiment [8], in experiment [10] and in [15] was 15 each time.
Regarding `C/C(=C\c1ccc(C(=O)O)cc1)c1ccc2c(c1)C(C)(C)CCC2(C)C`, the fold change (FC) in experiment [7], in experiment [8], in experiment [10] and in [15] was 15 throughout.
In the case of `O=C(O)c1ccc(/C=C/c2ccc3c(-c4ccccc4)ccc(-c4ccccc4)c3c2)cc1`, the outcome in [5], in [12], in experiment [13] and in experiment [14] was Active. The result in experiment [6], in experiment [9] and in [11] was inactive. The fold change (FC) in experiment [7], in [8], in experiment [10] and in experiment [15] was 15 in each case.
